# According to patent US20260193264A1, “BENZOYPARAZINE PYRAZINES AND THEIR USES” (FOGHORN THERAPEUTICS INC., priority 2022, published 2026):
# Assays:
# [1] = biological target: T1, HiBiT-BRM fusion protein in stable HeLa cell line (Homo sapiens, UniProt P51531); assay: HiBiT-BRM cell-based degradation assay (Nano-Glo HiBiT Lytic Detection, 24 h); set-up: DC50: scale not given here; conditions: HeLa HiBiT-BRM cells; for DC50: read-out: BRM HiBit Degradation IC50; for BRM HiBit Degradation Maximum (%): top dose 30 μM
# T1 construct: expressed in transfected cells
# Protocol: (§1) Procedure: A stable HeLa cell line expressing HiBiT-BRM was generated. On day 0, 5000 cells were seeded in 40 μL of media into each well of 384-well cell culture plates. On day 1, cells were treated with 120 nL DMSO or 120 nL of 3-fold serially DMSO-diluted compounds (10 points in duplicate with 30 μM as final top dose). Subsequently plates were incubated for 24 h in a standard tissue culture incubator and equilibrated at room temperature for 15 minutes. Nano-Glo HiBiT Lytic Detection System (Promega N3050) reagent was freshly prepared and 20 ul was added to each well. Upon addition of this LgBit-containing reagent, the HiBiT and LgBiT proteins associate to form the luminescent NanoBiT luciferase. The plates were shaken for 10 minutes at room temperature and the bioluminescence read using an EnVision plate reader (PerkinElmer).
# The degradation % was calculated using the following formula: % degradation=100%−100%×(Lumsample−LumLC)/(LumHC−LumLC). DMSO treated cells are employed as High Control (HC) and 2 μM of a known BRM/BRG1 degrader standard treated cells are employed as Low Control (LC).
# [2] = biological target: T2, HiBit-BRG1 fusion protein in stable HeLa cell line expressing HiBit-BRG1 and LgBit (Homo sapiens, UniProt P51532); assay: HiBiT-BRG1 cell-based degradation assay (Nano-Glo HiBiT, 24 h); conditions: HeLa HiBit-BRG1/LgBit cells; for DC50: read-out: BRMG1 HiBit Degradation IC50; for Dmax: top dose 30 μM, read-out: BRG1 HiBit Degradation Maximum (%)
# T2 construct: expressed in transfected cells
# Protocol: as §1, with “On day 1, cells were treated with 120 nL DMSO or 120 nL of 3-fold serially DMSO-diluted compounds (10 points in duplicate with 30 μM as final top dose).” left out, “(PerkinElmer). For measurement of BRG1 degradation, a stable HeLa cell line expressing HiBit-BRG1 and LgBit was generated. The same protocol as above was then followed. The degradation % was calculated using the following formula: % degradation=100%−100%×(Lumsample−LumLC)/(LumHC−LumLC). DMSO treated cells are employed as High Control (HC) and 2 μM of a known BRM/BRG1 degrader standard treated cells are employed as Low Control (LC).” for “(PerkinElmer).”
# T2 sequence (P51532 whole entry, the tested form may be a part): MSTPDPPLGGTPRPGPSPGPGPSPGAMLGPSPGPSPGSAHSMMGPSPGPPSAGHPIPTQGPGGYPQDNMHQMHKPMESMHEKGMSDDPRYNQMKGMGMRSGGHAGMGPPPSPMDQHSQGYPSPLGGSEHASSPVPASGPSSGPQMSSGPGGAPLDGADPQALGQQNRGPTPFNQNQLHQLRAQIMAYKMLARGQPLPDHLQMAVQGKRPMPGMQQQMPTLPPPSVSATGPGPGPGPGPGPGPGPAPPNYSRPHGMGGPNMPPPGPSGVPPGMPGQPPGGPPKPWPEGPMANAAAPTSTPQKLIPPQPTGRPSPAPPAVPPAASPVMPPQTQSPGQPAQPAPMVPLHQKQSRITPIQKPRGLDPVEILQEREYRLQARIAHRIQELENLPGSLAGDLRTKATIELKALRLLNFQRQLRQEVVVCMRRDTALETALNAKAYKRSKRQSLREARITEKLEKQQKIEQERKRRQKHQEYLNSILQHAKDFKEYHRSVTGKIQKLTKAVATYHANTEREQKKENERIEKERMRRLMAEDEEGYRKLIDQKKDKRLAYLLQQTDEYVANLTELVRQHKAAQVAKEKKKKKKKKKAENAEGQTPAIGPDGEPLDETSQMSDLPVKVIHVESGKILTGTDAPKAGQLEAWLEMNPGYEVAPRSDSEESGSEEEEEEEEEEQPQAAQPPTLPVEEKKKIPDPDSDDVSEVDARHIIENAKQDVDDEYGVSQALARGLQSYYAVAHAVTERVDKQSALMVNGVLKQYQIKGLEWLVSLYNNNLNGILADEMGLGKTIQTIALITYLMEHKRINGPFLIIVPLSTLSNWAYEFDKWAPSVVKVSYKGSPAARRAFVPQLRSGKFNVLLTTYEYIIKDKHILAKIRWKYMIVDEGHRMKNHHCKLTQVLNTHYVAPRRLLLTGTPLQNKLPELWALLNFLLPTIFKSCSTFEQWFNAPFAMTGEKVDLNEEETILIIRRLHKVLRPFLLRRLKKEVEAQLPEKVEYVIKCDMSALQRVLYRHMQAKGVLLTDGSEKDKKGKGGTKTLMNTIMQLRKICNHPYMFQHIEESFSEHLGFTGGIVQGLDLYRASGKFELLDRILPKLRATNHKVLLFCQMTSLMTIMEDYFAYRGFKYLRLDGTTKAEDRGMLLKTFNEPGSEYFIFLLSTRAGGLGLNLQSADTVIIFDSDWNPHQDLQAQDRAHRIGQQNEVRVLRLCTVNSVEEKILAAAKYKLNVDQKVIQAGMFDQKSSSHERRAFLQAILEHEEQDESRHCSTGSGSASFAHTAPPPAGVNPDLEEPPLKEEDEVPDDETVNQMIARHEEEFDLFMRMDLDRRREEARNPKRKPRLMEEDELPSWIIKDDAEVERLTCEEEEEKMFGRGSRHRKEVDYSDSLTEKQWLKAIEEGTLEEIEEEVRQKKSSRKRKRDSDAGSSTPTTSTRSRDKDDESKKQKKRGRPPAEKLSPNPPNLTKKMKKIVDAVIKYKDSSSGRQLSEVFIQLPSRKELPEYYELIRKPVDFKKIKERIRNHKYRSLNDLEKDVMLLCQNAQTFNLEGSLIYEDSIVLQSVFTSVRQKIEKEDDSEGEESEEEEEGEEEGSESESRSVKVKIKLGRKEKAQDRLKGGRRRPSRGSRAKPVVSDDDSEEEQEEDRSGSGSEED
# T1 sequence (P51531 whole entry, the tested form may be a part): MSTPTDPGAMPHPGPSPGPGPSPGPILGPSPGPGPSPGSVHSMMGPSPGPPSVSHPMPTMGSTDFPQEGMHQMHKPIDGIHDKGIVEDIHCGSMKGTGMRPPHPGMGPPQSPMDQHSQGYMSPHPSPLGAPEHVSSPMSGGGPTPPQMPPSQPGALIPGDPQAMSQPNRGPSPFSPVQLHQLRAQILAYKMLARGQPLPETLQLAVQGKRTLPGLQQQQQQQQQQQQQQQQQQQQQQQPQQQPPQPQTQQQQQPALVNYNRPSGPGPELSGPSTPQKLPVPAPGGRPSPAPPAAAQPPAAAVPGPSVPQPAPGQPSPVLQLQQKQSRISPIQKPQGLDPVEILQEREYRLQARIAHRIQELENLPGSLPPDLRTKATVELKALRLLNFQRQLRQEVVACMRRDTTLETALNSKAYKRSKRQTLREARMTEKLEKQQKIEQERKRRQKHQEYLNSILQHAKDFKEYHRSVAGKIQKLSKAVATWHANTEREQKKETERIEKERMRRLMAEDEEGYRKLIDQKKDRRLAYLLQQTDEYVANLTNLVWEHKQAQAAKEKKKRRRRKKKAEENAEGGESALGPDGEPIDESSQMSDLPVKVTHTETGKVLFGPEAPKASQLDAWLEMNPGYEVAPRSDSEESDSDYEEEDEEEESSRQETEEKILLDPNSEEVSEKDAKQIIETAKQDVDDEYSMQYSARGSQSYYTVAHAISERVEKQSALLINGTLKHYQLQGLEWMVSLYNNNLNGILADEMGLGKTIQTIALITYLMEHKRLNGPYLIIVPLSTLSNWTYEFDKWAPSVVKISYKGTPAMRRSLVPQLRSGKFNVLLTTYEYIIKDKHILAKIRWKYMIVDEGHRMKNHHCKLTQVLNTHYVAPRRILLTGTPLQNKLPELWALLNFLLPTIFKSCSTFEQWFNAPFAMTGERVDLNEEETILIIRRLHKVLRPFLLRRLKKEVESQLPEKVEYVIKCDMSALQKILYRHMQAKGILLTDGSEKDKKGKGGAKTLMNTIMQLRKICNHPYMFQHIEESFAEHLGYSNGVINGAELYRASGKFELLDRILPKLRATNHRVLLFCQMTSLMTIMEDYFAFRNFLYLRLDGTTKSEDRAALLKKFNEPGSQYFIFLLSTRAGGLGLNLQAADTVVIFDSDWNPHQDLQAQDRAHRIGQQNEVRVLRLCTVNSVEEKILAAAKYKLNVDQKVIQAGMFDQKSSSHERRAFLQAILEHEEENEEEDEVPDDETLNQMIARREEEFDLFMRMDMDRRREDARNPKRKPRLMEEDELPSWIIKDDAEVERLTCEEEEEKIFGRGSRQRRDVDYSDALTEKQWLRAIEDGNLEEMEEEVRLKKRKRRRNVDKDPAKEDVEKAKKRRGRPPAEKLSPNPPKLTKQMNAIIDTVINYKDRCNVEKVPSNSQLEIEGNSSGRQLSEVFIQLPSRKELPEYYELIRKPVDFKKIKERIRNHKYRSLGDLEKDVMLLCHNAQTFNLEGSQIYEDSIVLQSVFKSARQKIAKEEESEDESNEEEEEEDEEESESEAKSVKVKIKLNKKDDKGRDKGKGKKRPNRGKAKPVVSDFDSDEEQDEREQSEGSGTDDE
DC50 [1] [nM],DC50 [2] [nM],Dmax [2] [%],SMILES,BRM HiBit Degradation Maximum (%) [1]
< 10,< 10,> 75,"Cc1ncsc1-c1ccc([C@H](C)NC(=O)[C@@H]2C[C@@H](O)CN2C(=O)[C@@H](c2cc(N3CCC(N4CC(c5ccc6nnc(-c7ccccc7O)cc6c5)C4)CC3)no2)C(C)C)cc1 [Compound 3, (2S,4R)-4-hydroxy-1-((R)-2-(3-(4-(3-(3-(2-hydroxyphenyl)cinnolin-6-yl)azetidin-1-yl)piperidin-1-yl)isoxazol-5-yl)-3-methylbutanoyl)-N-((S)-1-(4-(4-methylthiazol-5-yl)phenyl)ethyl)pyrrolidine-2-carboxamide]",A (“A” indicates maximum degradation ≥75%)
< 10,> 10,> 75,"Cc1ncsc1-c1ccc([C@H](C)NC(=O)[C@@H]2C[C@@H](O)CN2C(=O)[C@@H](c2cc(-c3cnc(N4CC(c5ccc6nnc(-c7ccccc7O)cc6c5)C4)nc3)no2)C(C)C)cc1 [Compound 4, (2S,4R)-4-hydroxy-1-[(2R)-2-[3-(2-{3-[3-(2-hydroxyphenyl)cinnolin-6-yl]azetidin-1-yl}pyrimidin-5-yl)-1,2-oxazol-5-yl]-3-methylbutanoyl]-N-[(1S)-1-[4-(4-methyl-1,3-thiazol-5-yl)phenyl]ethyl]pyrrolidine-2-carboxamide]",A (“A” indicates maximum degradation ≥75%)
> 100,–,< 50,"Cc1ncsc1-c1ccc([C@H](C)NC(=O)[C@@H]2C[C@@H](O)CN2C(=O)[C@H](c2cc(-c3cnc(N4CC(c5ccc6nnc(-c7ccccc7O)cc6c5)C4)nc3)no2)C(C)C)cc1 [Compound 5, (2S,4R)-4-hydroxy-1-[(2S)-2-[3-(2-{3-[3-(2-hydroxyphenyl)cinnolin-6-yl]azetidin-1-yl}pyrimidin-5-yl)-1,2-oxazol-5-yl]-3-methylbutanoyl]-N-[(1S)-1-[4-(4-methyl-1,3-thiazol-5-yl)phenyl]ethyl]pyrrolidine-2-carboxamide]",B (“B” indicates maximum degradation ≥50%)
> 100,–,< 50,"Cc1ncsc1-c1ccc([C@H](C)NC(=O)[C@@H]2C[C@@H](O)CN2C(=O)[C@@H](c2cc(OCC(=O)N3CC(c4ccc5nnc(-c6ccccc6O)cc5c4)C3)no2)C(C)C)cc1 [Compound 6, (2S,4R)-4-hydroxy-1-[(2R)-2-[3-(2-{3-[3-(2-hydroxyphenyl)cinnolin-6-yl]azetidin-1-yl}-2-oxoethoxy)-1,2-oxazol-5-yl]-3-methylbutanoyl]-N-[(1S)-1-[4-(4-methyl-1,3-thiazol-5-yl)phenyl]ethyl]pyrrolidine-2-carboxamide]",B (“B” indicates maximum degradation ≥50%)
> 10,> 100,> 50,"Cc1ncsc1-c1ccc([C@H](C)NC(=O)[C@@H]2C[C@@H](O)CN2C(=O)[C@@H](c2cc(N3CCC(C(=O)N4CC(c5ccc6nnc(-c7ccccc7O)cc6c5)C4)CC3)no2)C(C)C)cc1 [Compound 7, (2S,4R)-4-hydroxy-1-((R)-2-(3-(4-(3-(3-(2-hydroxyphenyl)cinnolin-6-yl)azetidine-1-carbonyl)piperidin-1-yl)isoxazol-5-yl)-3-methylbutanoyl)-N-((S)-1-(4-(4-methylthiazol-5-yl)phenyl)ethyl)pyrrolidine-2-carboxamide]",A (“A” indicates maximum degradation ≥75%)
< 10,–,> 50,"Cc1ncsc1-c1ccc([C@H](C)NC(=O)[C@@H]2C[C@@H](O)CN2C(=O)[C@@H](c2cc(OCCN3CC(c4ccc5cc(-c6ccccc6O)nnc5c4)C3)no2)C(C)C)cc1 [Compound 8, (2S,4R)-4-hydroxy-1-[(2R)-2-[3-(2-{3-[3-(2-hydroxyphenyl)cinnolin-7-yl]azetidin-1-yl}ethoxy)-1,2-oxazol-5-yl]-3-methylbutanoyl]-N-[(1S)-1-[4-(4-methyl-1,3-thiazol-5-yl)phenyl]ethyl]pyrrolidine-2-carboxamide]",A (“A” indicates maximum degradation ≥75%)
> 10,–,< 50,"Cc1ncsc1-c1ccc([C@H](C)NC(=O)[C@@H]2C[C@@H](O)CN2C(=O)[C@@H](c2cc(N3CCC(CN4CC(c5ccc6cc(-c7ccccc7O)nnc6c5)C4)CC3)no2)C(C)C)cc1 [Compound 9, (2S,4R)-4-hydroxy-1-((R)-2-(3-(4-((3-(3-(2-hydroxyphenyl)cinnolin-7-yl)azetidin-1-yl)methyl)piperidin-1-yl)isoxazol-5-yl)-3-methylbutanoyl)-N-((S)-1-(4-(4-methylthiazol-5-yl)phenyl)ethyl)pyrrolidine-2-carboxamide]",A (“A” indicates maximum degradation ≥75%)
> 10,–,< 50,"Cc1ncsc1-c1ccc([C@H](C)NC(=O)[C@@H]2C[C@@H](O)CN2C(=O)[C@@H](c2cc(N3CCC(N4CC(c5ccc6cc(-c7ccccc7O)nnc6c5)C4)CC3)no2)C(C)C)cc1 [Compound 10, (2S,4R)-4-hydroxy-1-((R)-2-(3-(4-(3-(3-(2-hydroxyphenyl)cinnolin-7-yl)azetidin-1-yl)piperidin-1-yl)isoxazol-5-yl)-3-methylbutanoyl)-N-((S)-1-(4-(4-methylthiazol-5-yl)phenyl)ethyl)pyrrolidine-2-carboxamide]",A (“A” indicates maximum degradation ≥75%)
< 10,–,< 50,"Cc1ncsc1-c1ccc([C@H](C)NC(=O)[C@@H]2C[C@@H](O)CN2C(=O)[C@@H](c2cc(-c3cnc(N4CC(c5ccc6cc(-c7ccccc7O)nnc6c5)C4)nc3)no2)C(C)C)cc1 [Compound 11, (2S,4R)-4-hydroxy-1-[(2R)-2-[3-(2-{3-[3-(2-hydroxyphenyl)cinnolin-7-yl]azetidin-1-yl}pyrimidin-5-yl)-1,2-oxazol-5-yl]-3-methylbutanoyl]-N-[(1S)-1-[4-(4-methyl-1,3-thiazol-5-yl)phenyl]ethyl]pyrrolidine-2-carboxamide]",A (“A” indicates maximum degradation ≥75%)
> 100,–,< 50,"Cc1ncsc1-c1ccc([C@H](C)NC(=O)[C@@H]2C[C@@H](O)CN2C(=O)[C@H](c2cc(-c3cnc(N4CC(c5ccc6cc(-c7ccccc7O)nnc6c5)C4)nc3)no2)C(C)C)cc1 [Compound 12, (2S,4R)-4-hydroxy-1-[(2S)-2-[3-(2-{3-[3-(2-hydroxyphenyl)cinnolin-7-yl]azetidin-1-yl}pyrimidin-5-yl)-1,2-oxazol-5-yl]-3-methylbutanoyl]-N-[(1S)-1-[4-(4-methyl-1,3-thiazol-5-yl)phenyl]ethyl]pyrrolidine-2-carboxamide]",C (“C” indicates maximum degradation <50%)
< 10,< 10,> 75,"Cc1ncsc1-c1ccc([C@H](C)NC(=O)[C@@H]2C[C@@H](O)CN2C(=O)[C@@H](c2cc(-c3cnc(N4CCN(c5ccc6nnc(-c7ccccc7O)cc6c5)CC4)nc3)no2)C(C)C)cc1 [Compound 13, (2S,4R)-4-hydroxy-1-((R)-2-(3-(2-(4-(3-(2-hydroxyphenyl)cinnolin-6-yl)piperazin-1-yl)pyrimidin-5-yl)isoxazol-5-yl)-3-methylbutanoyl)-N—((S)-1-(4-(4-methylthiazol-5-yl)phenyl)ethyl)pyrrolidine-2-carboxamide]",A (“A” indicates maximum degradation ≥75%)
> 10,> 100,> 75,"Cc1ncsc1-c1ccc([C@H](C)NC(=O)[C@@H]2C[C@@H](O)CN2C(=O)[C@H](c2cc(-c3cnc(N4CCN(c5ccc6nnc(-c7ccccc7O)cc6c5)CC4)nc3)no2)C(C)C)cc1 [Compound 14, (2S,4R)-4-hydroxy-1-((S)-2-(3-(2-(4-(3-(2-hydroxyphenyl)cinnolin-6-yl)piperazin-1-yl)pyrimidin-5-yl)isoxazol-5-yl)-3-methylbutanoyl)-N—((S)-1-(4-(4-methylthiazol-5-yl)phenyl)ethyl)pyrrolidine-2-carboxamide]",A (“A” indicates maximum degradation ≥75%)
> 10,–,< 50,Cc1ncsc1-c1ccc([C@H](C)NC(=O)[C@@H]2C[C@@H](O)CN2C(=O)[C@H](c2cc(-c3cnc(N4CC5(CC(c6ccc7cc(-c8ccccc8O)nnc7c6)C5)C4)nc3)no2)C(C)C)cc1 [Compound 17],A (“A” indicates maximum degradation ≥75%)
